Here are results for one compound from BindingDB's records for doi:10.1021/jm00160a049 (1986).

This experiment addresses T1, Renin (Homo sapiens, UniProt P00797).
T1 sequence (P00797 whole entry): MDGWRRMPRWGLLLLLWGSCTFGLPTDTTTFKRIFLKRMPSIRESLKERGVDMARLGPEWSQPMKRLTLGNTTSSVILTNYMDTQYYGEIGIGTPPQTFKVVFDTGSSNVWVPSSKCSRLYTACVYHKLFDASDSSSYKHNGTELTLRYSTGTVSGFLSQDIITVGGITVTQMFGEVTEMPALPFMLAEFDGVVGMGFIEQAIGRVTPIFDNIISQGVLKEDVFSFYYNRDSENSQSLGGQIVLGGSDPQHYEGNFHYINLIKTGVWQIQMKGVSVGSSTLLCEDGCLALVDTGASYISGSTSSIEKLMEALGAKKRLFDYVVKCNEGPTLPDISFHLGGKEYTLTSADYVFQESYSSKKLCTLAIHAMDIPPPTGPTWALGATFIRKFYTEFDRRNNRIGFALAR
Description: ChEBML_195744. An excerpt:
Inhibition of human plasma renin

In turn, `CC[C@H](C)[C@H](NC(=O)[C@@H](C[C@H](O)[C@H](CC(C)C)NC(=O)[C@H](Cc1c[nH]cn1)N(C)C(=O)[C@H](Cc1ccccc1)NC(=O)[C@@H]1CCCN1C(=O)OC(C)(C)C)C(C)C)C(=O)NCc1ccccn1` [2-(1-{[1-(2-Hydroxy-1-isobutyl-5-methyl-4-{2-methyl-1-[(pyridin-2-ylmethyl)-carbamoyl]-butylcarbamoyl}-hexylcarbamoyl)-2-(3H-imidazol-4-yl)-ethyl]-methyl-carbamoyl}-2-phenyl-ethylcarbamoyl)-pyrrolidine-1-carboxylic acid tert-butyl ester] gave an IC50 of 0.65 nM.

One may read the IC50 as the concentration that inhibits the measured activity by half.
